The text below walks through data of ChEMBL document CHEMBL1134710, “The C4 hydroxyl group of phorbol esters is not necessary for protein kinase C binding” (Bioorg Med Chem Lett, 2001).

Assay [1] deals with HL-60. Briefly: (§1) Compound was tested in vitro for percent EBV0EA-inducing activity in […] cells at concentration 10e-6 M. The class given is functional, cell-based, Homo sapiens.
The subject of assay [2] is HL-60. Briefly: Compound was tested in vitro for percent EBV0EA-inducing activity in […] cells at concentration 10e-5 M. The assay is classed as functional, cell-based, Homo sapiens.
The test system of assay [3] is HL-60. Briefly: Compound was tested in vitro for its ability to induce superoxide generation in HL-60 cells at concentration 10e-6 M. The assay is classed as functional, Homo sapiens.
The target in assay [4] is T1, Protein kinase C alpha type (Homo sapiens, UniProt P17252). In words: Displacement of 3[H]PDBu from Protein kinase C alpha C1a domain.
For assay [5], the target named is T1, Protein kinase C alpha type. In words: Displacement of 3[H]PDBu from Protein kinase C alpha C1b domain.
Assay [6] relates to HL-60. Briefly: Compound was tested in vitro for percent EBV0EA-inducing activity in […] cells at concentration 10e-9 M. The assay is classed as functional, Homo sapiens.
In assay [7] the target is T2, Protein kinase C gamma type (Homo sapiens, UniProt P05129). Briefly: Displacement of 3[H]PDBu from Protein kinase C gamma C1b domain.
Assay [8] has as its target T3, Protein kinase C beta type (Homo sapiens, UniProt P05771). Briefly: Displacement of 3[H]PDBu from Protein kinase C beta C1b domain.
The target in assay [9] is T4, Protein kinase C epsilon type (Homo sapiens, UniProt Q02156).
T4 sequence (Q02156 whole entry): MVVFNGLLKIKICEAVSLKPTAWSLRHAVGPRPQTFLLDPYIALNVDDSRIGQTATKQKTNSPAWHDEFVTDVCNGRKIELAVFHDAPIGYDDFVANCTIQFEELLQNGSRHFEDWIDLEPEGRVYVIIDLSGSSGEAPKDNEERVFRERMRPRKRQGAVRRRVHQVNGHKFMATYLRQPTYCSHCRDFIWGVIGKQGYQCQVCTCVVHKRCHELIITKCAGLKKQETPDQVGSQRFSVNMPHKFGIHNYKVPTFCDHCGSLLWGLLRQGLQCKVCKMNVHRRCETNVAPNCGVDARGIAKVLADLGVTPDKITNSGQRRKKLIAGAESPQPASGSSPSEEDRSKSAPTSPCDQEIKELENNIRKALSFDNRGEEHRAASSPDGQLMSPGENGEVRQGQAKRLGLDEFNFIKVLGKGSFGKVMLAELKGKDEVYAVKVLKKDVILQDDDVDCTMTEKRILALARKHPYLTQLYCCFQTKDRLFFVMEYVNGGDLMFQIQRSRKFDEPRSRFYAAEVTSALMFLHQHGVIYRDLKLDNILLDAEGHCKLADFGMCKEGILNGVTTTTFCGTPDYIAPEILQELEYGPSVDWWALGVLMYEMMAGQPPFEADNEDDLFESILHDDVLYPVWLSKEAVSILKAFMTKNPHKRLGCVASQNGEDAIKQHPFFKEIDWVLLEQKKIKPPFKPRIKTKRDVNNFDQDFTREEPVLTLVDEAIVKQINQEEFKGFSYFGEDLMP
In words: Displacement of 3[H]PDBu from Protein kinase C epsilon C1a domain.

The target of assay [10] is T3, Protein kinase C beta type. In words: Displacement of 3[H]PDBu from Protein kinase C beta C1a domain.
Assay [11] deals with T5, Protein kinase C delta type (Homo sapiens, UniProt Q05655). Briefly: Displacement of 3[H]PDBu from Protein kinase C delta C1a domain.
T5 sequence (Q05655 whole entry, the tested form may be a part): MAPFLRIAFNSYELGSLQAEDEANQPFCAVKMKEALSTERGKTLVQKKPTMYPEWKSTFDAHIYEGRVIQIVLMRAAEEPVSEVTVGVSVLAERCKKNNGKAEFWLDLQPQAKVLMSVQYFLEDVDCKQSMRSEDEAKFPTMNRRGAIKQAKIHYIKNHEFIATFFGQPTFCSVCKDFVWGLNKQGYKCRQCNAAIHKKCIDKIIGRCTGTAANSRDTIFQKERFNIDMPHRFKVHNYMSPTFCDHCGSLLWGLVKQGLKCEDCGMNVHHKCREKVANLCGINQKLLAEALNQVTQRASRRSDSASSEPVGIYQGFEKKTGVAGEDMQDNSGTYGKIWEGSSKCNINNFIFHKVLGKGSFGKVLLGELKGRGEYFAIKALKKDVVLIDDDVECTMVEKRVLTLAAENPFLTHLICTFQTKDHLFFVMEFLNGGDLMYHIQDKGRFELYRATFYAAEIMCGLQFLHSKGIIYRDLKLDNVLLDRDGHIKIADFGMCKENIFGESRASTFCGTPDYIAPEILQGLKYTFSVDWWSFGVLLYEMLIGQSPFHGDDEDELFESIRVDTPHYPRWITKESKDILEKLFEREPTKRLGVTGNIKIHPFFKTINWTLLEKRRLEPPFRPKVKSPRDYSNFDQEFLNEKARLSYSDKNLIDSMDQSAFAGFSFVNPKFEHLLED
For assay [12], the target named is T5, Protein kinase C delta type. Briefly: Displacement of 3[H]PDBu from Protein kinase C delta C1b domain.
Assay [13] deals with T4, Protein kinase C epsilon type. In words: Displacement of 3[H]PDBu from Protein kinase C epsilon C1b domain.
For assay [14], the system named is HL-60. Briefly: Compound was tested in vitro for percent EBV0EA-inducing activity in […] cells at concentration 10e-8 M. The assay is classed as functional, Homo sapiens.
In assay [15] the test system is HL-60. In words: Compound was tested in vitro for its ability to induce superoxide generation in HL-60 cells at concentration 10e-7 M. The class given is functional, Homo sapiens.
The target of assay [16] is T2, Protein kinase C gamma type. In words: Displacement of 3[H]PDBu from Protein kinase C gamma C1a domain.
Assay [17] has as its system HL-60. Briefly: Compound was tested in vitro for percent EBV0EA-inducing activity in […] cells at concentration 10e-7 M. The assay is classed as functional, Homo sapiens.
The target in assay [18] is T6, Protein kinase C eta type (Homo sapiens, UniProt P24723). Briefly: Displacement of 3[H]PDBu from Protein kinase C eta C1b domain.
T6 sequence (P24723 whole entry, the tested form may be a part): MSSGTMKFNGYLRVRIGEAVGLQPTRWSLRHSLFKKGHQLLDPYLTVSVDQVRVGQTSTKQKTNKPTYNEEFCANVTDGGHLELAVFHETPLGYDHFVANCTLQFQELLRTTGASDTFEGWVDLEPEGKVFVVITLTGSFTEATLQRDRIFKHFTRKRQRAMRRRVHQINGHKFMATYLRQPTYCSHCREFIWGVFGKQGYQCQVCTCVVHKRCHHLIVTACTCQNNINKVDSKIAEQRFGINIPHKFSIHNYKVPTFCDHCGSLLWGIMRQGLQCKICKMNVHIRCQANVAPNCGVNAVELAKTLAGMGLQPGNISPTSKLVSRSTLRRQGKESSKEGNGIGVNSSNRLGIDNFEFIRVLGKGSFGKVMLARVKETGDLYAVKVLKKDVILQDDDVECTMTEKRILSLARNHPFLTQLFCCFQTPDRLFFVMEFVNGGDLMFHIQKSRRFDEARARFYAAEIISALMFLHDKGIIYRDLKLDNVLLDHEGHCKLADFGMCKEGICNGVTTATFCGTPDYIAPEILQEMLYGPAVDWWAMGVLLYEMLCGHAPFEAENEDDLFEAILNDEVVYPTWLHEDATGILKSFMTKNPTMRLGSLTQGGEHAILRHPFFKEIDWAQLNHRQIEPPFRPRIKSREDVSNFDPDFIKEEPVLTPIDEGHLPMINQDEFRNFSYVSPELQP
The test system of assay [19] is HL-60. In words: Compound was tested in vitro for its ability to induce superoxide generation in HL-60 cells at concentration 10e-8 M. The assay is classed as functional, Homo sapiens.
In assay [20] the test system is HL-60. The description is as §1. The class given is functional, Homo sapiens.
Assay [21] addresses T6, Protein kinase C eta type. Briefly: Displacement of 3[H]PDBu from Protein kinase C eta C1a domain.
Assay [22] addresses Protein kinase C theta type (Homo sapiens, UniProt Q04759). Briefly: Displacement of 3[H]PDBu from Protein kinase C theta C1b domain.
In assay [23] the test system is HL-60. In words: Compound was tested in vitro for its ability to induce superoxide generation in HL-60 cells at concentration 10e-9 M. The assay is classed as functional, Homo sapiens.

The Ki is the equilibrium dissociation constant of an inhibitor or competing ligand from its target. High values mean a looser hold on the target, low ones a stronger hold on the target.

Each structure is given as a SMILES string.

T3 sequence (P05771 whole entry, the tested form may be a part): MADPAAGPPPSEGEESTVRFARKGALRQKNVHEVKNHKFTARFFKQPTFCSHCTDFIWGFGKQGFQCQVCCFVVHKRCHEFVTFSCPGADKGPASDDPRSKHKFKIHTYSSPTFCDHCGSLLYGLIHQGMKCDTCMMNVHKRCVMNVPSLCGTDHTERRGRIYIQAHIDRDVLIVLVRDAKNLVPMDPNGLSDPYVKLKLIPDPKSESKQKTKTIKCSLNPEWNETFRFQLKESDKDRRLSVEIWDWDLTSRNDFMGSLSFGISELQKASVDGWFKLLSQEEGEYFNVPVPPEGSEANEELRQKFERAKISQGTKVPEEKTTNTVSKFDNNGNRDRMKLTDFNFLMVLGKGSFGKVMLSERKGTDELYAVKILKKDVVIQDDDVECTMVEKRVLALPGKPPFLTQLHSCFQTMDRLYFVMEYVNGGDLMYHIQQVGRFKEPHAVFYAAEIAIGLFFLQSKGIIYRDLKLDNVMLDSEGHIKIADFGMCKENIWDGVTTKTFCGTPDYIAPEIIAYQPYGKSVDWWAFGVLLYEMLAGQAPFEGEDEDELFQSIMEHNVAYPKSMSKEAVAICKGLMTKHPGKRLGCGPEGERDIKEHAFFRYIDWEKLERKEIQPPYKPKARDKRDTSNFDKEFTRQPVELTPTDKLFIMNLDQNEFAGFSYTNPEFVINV
Chain of Protein kinase C theta type (Q04759 whole entry, the tested form may be a part): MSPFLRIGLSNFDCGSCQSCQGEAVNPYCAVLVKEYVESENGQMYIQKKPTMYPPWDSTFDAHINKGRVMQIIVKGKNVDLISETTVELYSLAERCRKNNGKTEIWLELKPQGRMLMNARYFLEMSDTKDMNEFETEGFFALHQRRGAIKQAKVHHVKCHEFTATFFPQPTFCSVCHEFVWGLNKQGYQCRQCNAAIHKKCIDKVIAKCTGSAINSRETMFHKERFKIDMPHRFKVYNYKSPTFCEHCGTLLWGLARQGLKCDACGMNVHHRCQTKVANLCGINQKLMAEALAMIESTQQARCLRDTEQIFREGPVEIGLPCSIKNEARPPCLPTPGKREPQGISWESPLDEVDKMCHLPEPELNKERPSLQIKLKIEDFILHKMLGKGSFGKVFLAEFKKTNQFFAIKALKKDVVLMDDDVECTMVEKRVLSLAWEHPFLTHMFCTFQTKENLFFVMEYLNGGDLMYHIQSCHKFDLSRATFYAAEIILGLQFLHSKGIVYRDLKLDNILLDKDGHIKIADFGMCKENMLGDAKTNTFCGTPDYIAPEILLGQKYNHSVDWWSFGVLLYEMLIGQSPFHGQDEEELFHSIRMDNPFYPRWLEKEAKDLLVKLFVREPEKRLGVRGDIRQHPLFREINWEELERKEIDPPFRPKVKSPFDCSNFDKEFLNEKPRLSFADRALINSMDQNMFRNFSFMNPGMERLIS

In the case of `CCCC(=O)O[C@@H]1[C@@H](C)[C@]2(O)[C@@H]3C=C(C)C(=O)[C@@H]3CC(CO)=C[C@H]2[C@@H]2C(C)(C)[C@]12OC(=O)CCC`, the Activity in assay [1] was 2.7%; in assay [2], 17.9%; in [3], 0.05 nM min-1 (10e-6*cells)-1.

Regarding `CCCC(=O)O[C@@H]1[C@@H](C)[C@]2(O)[C@@H]3C=C(C)C(=O)[C@H]3CC(CO)=C[C@H]2[C@@H]2C(C)(C)[C@]12OC(=O)CCC`, the inhibition constant Ki in assay [4] came out at 4.05 nM; in assay [5], 13.9 nM; in [7], 1.84 nM; in assay [8], 2.23 nM; in assay [9], 4.49 nM; in assay [10], 2.78 nM. For the same compound, the inhibition constant Ki was 70.2 nM in assay [11]; 0.55 nM in assay [12]; 0.58 nM in assay [13]; 5.23 nM in assay [16]; 0.35 nM in assay [18]; 14.9 nM in assay [21]. Further, affinity in assay [22] was put at a Ki of 0.73 nM. Besides, the Activity in assay [6] is 1.2%; in assay [14] it was 7%; in [15], 3.16 nM min-1 (10e-6*cells)-1; in [17], 31.1%; in assay [19], 0.08 nM min-1 (10e-6*cells)-1; in assay [20] it was 25.6%. The values for the Activity in assay [3] and in assay [23] were 3.14 nM min-1 (10e-6*cells)-1 and 0.11 nM min-1 (10e-6*cells)-1, respectively.

With `CCCC(=O)O[C@@H]1[C@@H](C)[C@@]2(O)[C@@H](C=C(CO)C[C@]3(O)C(=O)C(C)=C[C@@H]23)[C@@H]2C(C)(C)[C@]12OC(=O)CCC`, the Activity in [6] is given as 3.6%; in assay [14] it was 10.8%; in assay [15] it was 3.11 nM min-1 (10e-6*cells)-1; in assay [17] it was 33.1%; in assay [19], 0.11 nM min-1 (10e-6*cells)-1; in [20], 29.9%. Moreover, the figures for the Activity in assay [3] and in assay [23] were 3.32 nM min-1 (10e-6*cells)-1 and 0 nM min-1 (10e-6*cells)-1, respectively.
